Results on 19 compounds are retold here after patent US10947205B2, “Oxazolidinone compounds and methods of use thereof as antibacterial agents” (priority 2015, dated 2021).

Values after ≈ are worked out from the molar mass of the structure shown. Like-named read-outs stand apart in the source and are kept apart here. Bounds are passed on as bounds.

The subject of experiment [1] is Mycobacterium tuberculosis (Mtb). As to the kind of experiment: microbe, parasite or virus in culture. The class given is cell-based, Mycobacterium tuberculosis H37Rv (Mtb-GFP). The settings on record: 168 h.
The subject of experiment [2] is Staphylococcus aureus (methicillin resistant, MB5393, COL). In words: microbe, parasite or virus in culture. The class given is cell-based. The settings on record: MRSA, 22 h, read-out: MRSA COL MITC95 μM. As for the experimental part:
Inhibition of Staphylococcus aureus (methicillin resistant, MB5393, COL) growth was assessed in cation adjusted Mueller Hinton II broth (CAMHB) in 384-well microtiter plates. Bacteria were dispensed into microtiter plates at approximately 5×10^5 actively growing cells in 49 μL volumes per well. Cells were exposed to 2-fold serial dilutions of compounds from 200 μM to 0.195 μM and growth compared to drug-free control. Compound dilutions were prepared in 100% dimethylsulfoxide and added to microtiter plates in 1 μL volumes per well. Full growth control wells contained dimethylsufoxide and bacteria. No growth control wells contained dimethysulfoxide and CAMHB but no bacteria. Growth inhibition was assessed after a 22-hour growth period by measuring optical density using a spectrophotometer. The lowest concentration of test compound required to inhibit 95% of the growth of the bacteria was defined as the MITC95. All studies were done in a BSL2 facility.

In experiment [3] the test system is mitochondrial protein synthesis in HepG2 cells (COX-I / SDH-A). As to the kind of experiment: Mitochondrial protein synthesis assay. The class given is cell-based. The note with it: Homo sapiens, 96 h; HepG2 cells, 4 days, ratio of COX-1 to SDH-A levels; read-out: MPS IC50_μM. As for the experimental part: (§1) Inhibition of mitochondrial protein synthesis was assessed in HepG2 cells by comparing the levels of two subunits of oxidative phosphorylation enzyme complexes, subunit I of Complex IV (COX-I) and the 70 kDa subunit of Complex II (SDH-A). COX-I is mitochondrial DNA encoded and SDH-A is nuclear DNA encoded. HepG2 cells were seeded in 96-well collagen coated plates at 8,000 cells per well and exposed to 2-fold serial dilutions of compounds from 100 LM to 6.25 μM. Microtiter plates were incubated for approximately 5 replication cycles (4 days) prior to assessment of protein levels using a kit as described by the manufacturer (ab 110217 MitoBiogenesis In Cell ELISA Kit, Abcam, Cambridge, Mass.). Inhibition of mitochondrial protein synthesis was expressed as a ratio of COX-1 to SDH-A levels.
as §1, with “μM” for “LM”

Setting [4] is: pH 6.8, read-out: Mtb Cho MITC95_μM.
Where [5] appears, read: pH 6.8, read-out: Mtb Glu MITC95_μM.

Regarding `CSc1ccc(-c2ccc(N3C[C@H](CN)OC3=O)cc2F)cc1` [Example 1, (S)-5-(aminomethyl)-3-(2-fluoro-4′-(methylthio)-[1,1′-biphenyl]-4-yl)oxazolidin-2-one], the results for the MIC in experiment [1] (setting [4]), in experiment [1] (setting [5]) and in experiment [2] were 0.03 µM (≈ 0.00997 µg/mL), 0.04 µM (≈ 0.0133 µg/mL) and 25 µM (≈ 8.31 µg/mL), respectively. Besides, the IC50 in experiment [3] turned out to be 12.2 µM.
The matching figures for `CC(C)(C)OC(=O)N1CC=C(c2ccc(N3C[C@H](CN)OC3=O)cc2F)CC1` [Example 26, tert-butyl 4-{4-[(5S)-5-(aminomethyl)-2-oxo-1,3-oxazolidin-3-yl]-2-fluorophenyl}-3,6-dihydropyridin-1(2H)-carboxylate]: 1.5 µM (≈ 0.587 µg/mL), 0.78 µM (≈ 0.305 µg/mL), 200 µM (≈ 78.3 µg/mL) and > 20 µM.
The like results for `COC(=O)NC[C@H]1CN(c2ccc(-c3ccc(SC)cc3)c(F)c2)C(=O)O1` [Example 62, (S)-methyl ((3-(2-fluoro-4′-(methylthio)-[1,1′-biphenyl]-4-yl)-2-oxooxazolidin-5-yl)methyl)carbamate] were, in that order, 0.04 µM (≈ 0.0156 µg/mL), 0.04 µM (≈ 0.0156 µg/mL), 200 µM (≈ 78.1 µg/mL) and 10 µM.
The matching figures for `NC[C@H]1CN(c2ccc(-c3cccc([N+](=O)[O-])c3)c(F)c2)C(=O)O1` [Example 20, (5S)-5-(aminomethyl)-3-(2-fluoro-3′-nitrobiphenyl-4-yl)-1,3-oxazolidin-2-one]: 0.58 µM (≈ 0.192 µg/mL), 0.14 µM (≈ 0.0464 µg/mL), 200 µM (≈ 66.3 µg/mL) and > 20 µM.
In the case of `NC[C@H]1CN(c2ccc(-c3cccnc3)c(F)c2)C(=O)O1` [Example 24, (5S)-5-(aminomethyl)-3-(3-fluoro-4-pyridin-3-ylphenyl)-1,3-oxazolidin-2-one], the results for the MIC in experiment [1] (setting [4]), in experiment [1] (setting [5]) and in experiment [2] were 0.09 µM (≈ 0.0259 µg/mL), 0.04 µM (≈ 0.0115 µg/mL) and 200 µM (≈ 57.5 µg/mL), respectively. Also, the IC50 in experiment [3] is > 20 µM.
Regarding `CSc1ccc(-c2ccc(N3C[C@H](Cn4cncn4)OC3=O)cc2F)cc1` [Example 43, (R)-5-((1H-1,2,4-triazol-1-yl)methyl)-3-(2-fluoro-4′-(methylthio)-[1,1′-biphenyl]-4-yl)oxazolidin-2-one], the MIC in experiment [1] (setting [4]) came out at 0.19 µM (≈ 0.073 µg/mL); in experiment [1] (setting [5]) it was 0.58 µM (≈ 0.223 µg/mL); in experiment [2] it was 200 µM (≈ 76.9 µg/mL). Also, in experiment [3], the IC50 was > 20 µM.
The like results for `Cn1cc(-c2ccc(N3C[C@H](CN)OC3=O)cc2F)cn1` [Example 37, (5S)-5-(aminomethyl)-3-[3-fluoro-4-(1-methyl-1H-pyrazol-4-yl)phenyl]-1,3-oxazolidin-2-one] were, in that order, 0.39 µM (≈ 0.113 µg/mL), 0.29 µM (≈ 0.0842 µg/mL), 200 µM (≈ 58.1 µg/mL) and > 20 µM.
The like results for `NC[C@H]1CN(c2ccc(-c3ccc(C4CC4)nc3)c(F)c2)C(=O)O1` [Example 33, (5S)-5-(aminomethyl)-3-[4-(6-cyclopropylpyridin-3-yl)-3-fluorophenyl]-1,3-oxazolidin-2-one] were, in that order, 0.19 µM (≈ 0.0622 µg/mL), 0.845 µM (≈ 0.277 µg/mL), 200 µM (≈ 65.5 µg/mL) and > 20 µM.
`CS(=O)(=O)c1ccc(-c2ccc(N3C[C@H](CN)OC3=O)cc2F)cc1` [Example 4, (5S)-5-(aminomethyl)-3-[2-fluoro-4′-(methylsulfonyl)biphenyl-4-yl]-1,3-oxazolidin-2-one]: the MIC amounted to 0.09 µM (≈ 0.0328 µg/mL) in experiment [1] (setting [4]), 0.04 µM (≈ 0.0146 µg/mL) in experiment [1] (setting [5]) and 200 µM (≈ 72.9 µg/mL) in experiment [2]. Also, the IC50 in experiment [3] amounted to 22 µM.
As to `N#Cc1cccc(-c2ccc(N3C[C@H](CN)OC3=O)cc2F)c1` [Example 13, 4′-[(5S)-5-(aminomethyl)-2-oxo-1,3-oxazolidin-3-yl]-2′-fluorobiphenyl-3-carbonitrile], the MIC in experiment [1] (setting [4]) came to 0.19 µM (≈ 0.0592 µg/mL); in experiment [1] (setting [5]), 0.19 µM (≈ 0.0592 µg/mL); in experiment [2], 200 µM (≈ 62.3 µg/mL). Moreover, the IC50 in experiment [3] is > 20 µM.
Take `CSc1ccc(-c2ccc(N3C[C@H](Cn4cccn4)OC3=O)cc2F)cc1` [Example 46, (5R)-3-[2-fluoro-4′-(methylsulfanyl)biphenyl-4-yl]-5-(1H-pyrazol-1-ylmethyl)-1,3-oxazolidin-2-one]: the MIC in experiment [1] (setting [4]) worked out at 0.29 µM (≈ 0.111 µg/mL); in experiment [1] (setting [5]), 0.585 µM (≈ 0.224 µg/mL); in experiment [2], 200 µM (≈ 76.7 µg/mL). Moreover, the IC50 in experiment [3] is > 20 µM.
In the case of `NCC(=O)NC[C@H]1CN(c2ccc(-c3ccc(C(N)=O)cc3)c(F)c2)C(=O)O1` [Example 57, (S)-4′-(5-((2-aminoacetamido)methyl)-2-oxooxazolidin-3-yl)-2′-fluoro-[1,1′-biphenyl]-4-carboxamide], the MIC in experiment [1] (setting [4]) was found to be 0.535 µM (≈ 0.207 µg/mL); in experiment [1] (setting [5]), 0.29 µM (≈ 0.112 µg/mL); in experiment [2], 25 µM (≈ 9.66 µg/mL). Moreover, the IC50 in experiment [3] was 50 µM.
The like results for `NC[C@H]1CN(c2ccc(-c3ccc(S(N)(=O)=O)cc3)c(F)c2)C(=O)O1` [Example 6, 4′-[(5S)-5-(aminomethyl)-2-oxo-1,3-oxazolidin-3-yl]-2′-fluorobiphenyl-4-sulfonamide] were, in that order, 0.04 µM (≈ 0.0146 µg/mL), 0.04 µM (≈ 0.0146 µg/mL), 100 µM (≈ 36.5 µg/mL) and > 20 µM.
As to `NC[C@H]1CN(c2ccc(-c3ccc4c(c3)CNC4=O)c(F)c2)C(=O)O1` [Example 34, 5-{4-[(5S)-5-(aminomethyl)-2-oxo-1,3-oxazolidin-3-yl]-2-fluorophenyl}-2,3-dihydro-1H-isoindol-1-one], the MIC in experiment [1] (setting [4]) was 0.04 µM (≈ 0.0137 µg/mL); in experiment [1] (setting [5]), 0.04 µM (≈ 0.0137 µg/mL); in experiment [2], 200 µM (≈ 68.3 µg/mL). In addition, the IC50 in experiment [3] was > 20 µM.
As to `NC[C@H]1CN(c2ccc(-c3ccn4ncnc4c3)c(F)c2)C(=O)O1` [Example 8, (5S)-5-(aminomethyl)-3-(3-fluoro-4-[1,2,4]triazolo[1,5-a]pyridin-7-ylphenyl)-1,3-oxazolidin-2-one], the values for the MIC in experiment [1] (setting [4]), in experiment [1] (setting [5]) and in experiment [2] were 0.04 µM (≈ 0.0131 µg/mL), 0.04 µM (≈ 0.0131 µg/mL) and 200 µM (≈ 65.5 µg/mL), respectively. For the same compound, in experiment [3], the IC50 was > 20 µM.
As to `NC[C@H]1CN(c2ccc(-c3ccc4nncn4c3)c(F)c2)C(=O)O1` [Example 9, (5S)-5-(aminomethyl)-3-(3-fluoro-4-[1,2,4]triazolo[4,3-a]pyridin-6-ylphenyl)-1,3-oxazolidin-2-one], the MIC in experiment [1] (setting [4]) came out at 0.14 µM (≈ 0.0458 µg/mL); in experiment [1] (setting [5]), 0.09 µM (≈ 0.0295 µg/mL); in experiment [2], 200 µM (≈ 65.5 µg/mL). The IC50 in experiment [3] was > 20 µM.
The matching figures for `NC[C@H]1CN(c2ccc(-c3ccc4cc[nH]c4c3)c(F)c2)C(=O)O1` [Example 27, (5S)-5-(aminomethyl)-3-[3-fluoro-4-(1H-indol-6-yl)phenyl]-1,3-oxazolidin-2-one]: 0.78 µM (≈ 0.254 µg/mL), 0.39 µM (≈ 0.127 µg/mL), 200 µM (≈ 65.1 µg/mL) and > 50 µM.
As for `CSc1ccc(-c2ccc(N3C[C@H](COc4ccon4)OC3=O)cc2F)cc1` [Example 49, (R)-3-(2-fluoro-4′-(methylthio)-[1,1′-biphenyl]-4-yl)-5-((isoxazol-3-yloxy)methyl)oxazolidin-2-one], the MIC came to 0.58 µM (≈ 0.232 µg/mL) in experiment [1] (setting [4]), 0.58 µM (≈ 0.232 µg/mL) in experiment [1] (setting [5]) and 200 µM (≈ 80.1 µg/mL) in experiment [2]. In addition, the IC50 in experiment [3] is > 20 µM.
For `NC[C@H]1CN(c2ccc(-c3ccn[nH]3)c(F)c2)C(=O)O1` [Example 16, (5S)-5-(aminomethyl)-3-[3-fluoro-4-(1H-pyrazol-5-yl)phenyl]-1,3-oxazolidin-2-one], the MIC was 0.39 µM (≈ 0.108 µg/mL) in experiment [1] (setting [4]), 0.19 µM (≈ 0.0525 µg/mL) in experiment [1] (setting [5]) and 200 µM (≈ 55.3 µg/mL) in experiment [2]. For the same compound, the IC50 in experiment [3] is > 20 µM.
